{"source": "patent US20260285850A1", "about": "“SUBSTITUTED OXAZOLIDINONES AND IMIDAZOLINONES AS HERBICIDES” (FMC CORPORATION, priority 2023, published 2026)", "format_in_all_cases": "in vivo", "key": {"[1]": {"system": "corn (Zea mays)", "experiment": "Test A postemergence application, visual injury rating 0-100", "settings": "10 days", "outline": "(§1)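 Rating: visual, day 10, untreated plants as reference, 0 no effect to 100 full control. Plants were in loam-sand and were treated either preemergence via directed soil spray or postemergence at the one- to two-leaf stage.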"}, "[2]": {"system": "galium (catchweed bedstraw, Galium aparine)", "experiment": "Test A postemergence application, visual injury rating 0-100", "settings": "10 days", "outline": "as §1"}, "[3]": {"system": "blackgrass (Alopecurus myosuroides)", "experiment": "Test A postemergence application, visual injury rating 0-100", "settings": "10 days", "outline": "as §1"}, "[4]": {"system": "barnyardgrass (Echinochloa crus-galli)", "experiment": "Test A postemergence application, visual injury rating 0-100", "settings": "10 days", "outline": "as §1"}, "[5]": {"system": "soybean (Glycine max)", "experiment": "Test A postemergence application, visual injury rating 0-100", "settings": "10 days", "outline": "as §1"}, "[6]": {"system": "horseweed (Erigeron canadensis)", "experiment": "Test A postemergence application, visual injury rating 0-100", "settings": "10 days", "outline": "as §1"}, "[7]": {"system": "wheat (Triticum aestivum)", "experiment": "Test A postemergence application, visual injury rating 0-100", "settings": "10 days", "outline": "as §1"}, "[8]": {"system": "oat, wild (wild oat, Avena fatua)", "experiment": "Test A postemergence application, visual injury rating 0-100", "settings": "10 days", "outline": "as §1"}, "[9]": {"system": "green foxtail (Setaria viridis)", "experiment": "Test A postemergence application, visual injury rating 0-100", "settings": "10 days", "outline": "as §1"}, "[10]": {"system": "kochia (Bassia scoparia)", "experiment": "Test A postemergence application, visual injury rating 0-100", "settings": "10 days", "outline": "as §1"}, "[11]": {"system": "ragweed (common ragweed, Ambrosia artemisiifolia)", "experiment": "Test A postemergence application, visual injury rating 0-100", "settings": "10 days", "outline": "as §1"}, "[12]": {"system": "palmer (palmer amaranth, palmer pigweed, Amaranthus palmeri)", "experiment": "Test A postemergence application, visual injury rating 0-100", "settings": "10 days", "outline": "as §1"}, "[13]": {"system": "ryegrass, Italian (italian ryegrass, Lolium multiflorum)", "experiment": "Test A postemergence application, visual injury rating 0-100", "settings": "10 days", "outline": "as §1"}, "[14]": {"system": "ducksalad (Heteranthera limosa)", "experiment": "Test B flooded paddy test, visual plant response rating 0-100", "settings": "250 g ai/ha, Flood, applied to paddy water, evaluated after 13 days", "outline": "(§2)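 Visual scores versus untreated controls were recorded 13 days after treatment of greenhouse-held plants. At the 2-leaf stage, pots were flooded 3 cm above the soil surface and compounds added straight to the water.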"}, "[15]": {"system": "rice (Oryza sativa)", "experiment": "Test B flooded paddy test, visual plant response rating 0-100", "settings": "250 g ai/ha, Flood, applied to paddy water, evaluated after 13 days", "outline": "as §2"}, "[16]": {"system": "sedge, umbrella (small-flower umbrella sedge, Cyperus difformis)", "experiment": "Test B flooded paddy test, visual plant response rating 0-100", "settings": "250 g ai/ha, Flood, applied to paddy water, evaluated after 13 days", "outline": "as §2"}, "[17]": {"system": "barnyardgrass (Echinochloa crusgalli)", "experiment": "Test B flooded paddy test, visual plant response rating 0-100", "settings": "250 g ai/ha, Flood, applied to paddy water, evaluated after 13 days", "outline": "as §2"}, "[18]": {"system": "corn (Zea mays)", "experiment": "Test A preemergence soil spray, visual injury rating 0-100", "settings": "10 days, 0 = no effect, 100 = complete control", "outline": "as §1"}, "[19]": {"system": "blackgrass (Alopecurus myosuroides)", "experiment": "Test A preemergence soil spray, visual injury rating 0-100", "settings": "10 days, 0 = no effect, 100 = complete control", "outline": "as §1"}, "[20]": {"system": "barnyardgrass (Echinochloa crus-galli)", "experiment": "Test A preemergence soil spray, visual injury rating 0-100", "settings": "10 days, 0 = no effect, 100 = complete control", "outline": "as §1"}, "[21]": {"system": "soybean (Glycine max)", "experiment": "Test A preemergence soil spray, visual injury rating 0-100", "settings": "10 days, 0 = no effect, 100 = complete control", "outline": "as §1"}, "[22]": {"system": "wheat (Triticum aestivum)", "experiment": "Test A preemergence soil spray, visual injury rating 0-100", "settings": "10 days, 0 = no effect, 100 = complete control", "outline": "as §1"}, "[23]": {"system": "oat, wild (wild oat, Avena fatua)", "experiment": "Test A preemergence soil spray, visual injury rating 0-100", "settings": "10 days, 0 = no effect, 100 = complete control", "outline": "as §1"}, "[24]": {"system": "green foxtail (Setaria viridis)", "experiment": "Test A preemergence soil spray, visual injury rating 0-100", "settings": "10 days, 0 = no effect, 100 = complete control", "outline": "as §1"}, "[25]": {"system": "kochia (Bassia scoparia)", "experiment": "Test A preemergence soil spray, visual injury rating 0-100", "settings": "10 days, 0 = no effect, 100 = complete control", "outline": "as §1"}, "[26]": {"system": "ragweed (common ragweed, Ambrosia artemisiifolia)", "experiment": "Test A preemergence soil spray, visual injury rating 0-100", "settings": "10 days, 0 = no effect, 100 = complete control", "outline": "as §1"}, "[27]": {"system": "palmer (palmer amaranth, palmer pigweed, Amaranthus palmeri)", "experiment": "Test A preemergence soil spray, visual injury rating 0-100", "settings": "10 days, 0 = no effect, 100 = complete control", "outline": "as §1"}, "[28]": {"system": "ryegrass, Italian (italian ryegrass, Lolium multiflorum)", "experiment": "Test A preemergence soil spray, visual injury rating 0-100", "settings": "10 days, 0 = no effect, 100 = complete control", "outline": "as §1"}, "[29]": {"settings": "31 g ai/ha, postemergence, 0 = no effect, 100 = complete control"}, "[30]": {"settings": "Postemergence, 125 g ai/ha, 0 is no effect, 100 is complete control"}}, "data": [{"smiles": "CC(C)OC(=O)C1CC(NC(=O)C2(C)CN(c3cc(F)cc(F)c3)C(=O)O2)CO1", "note": "(stereo not shown) [Compound 32]", "values": [{"measurement": "Corn plant response rating (0-100)", "setting": "[1]; [29]", "result": 0}, {"measurement": "Corn plant response rating (0 to 100 scale)", "setting": "[1]; [30]", "result": 50}, {"measurement": "Galium plant response rating (0-100)", "setting": "[2]; [29]", "result": 50}, {"measurement": "Galium plant response rating (0 to 100 scale)", "setting": "[2]; [30]", "result": 80}, {"measurement": "Blackgrass plant response rating (0-100)", "setting": "[3]; [29]", "result": 80}, {"measurement": "Blackgrass plant response rating (0 to 100 scale)", "setting": "[3]; [30]", "result": 100}, {"measurement": "Barnyardgrass plant response rating (0-100)", "setting": "[4]; [29]", "result": 0}, {"measurement": "Barnyardgrass plant response rating (0 to 100 scale)", "setting": "[4]; [30]", "result": 90}, {"measurement": "Soybean plant response rating (0-100)", "setting": "[5]; [29]", "result": 20}, {"measurement": "Soybean plant response rating (0 to 100 scale)", "setting": "[5]; [30]", "result": 60}, {"measurement": "Horseweed plant response rating (0-100)", "setting": "[6]; [29]", "result": 0}, {"measurement": "Horseweed plant response rating (0 to 100 scale)", "setting": "[6]; [30]", "result": 0}, {"measurement": "Wheat plant response rating (0-100)", "setting": "[7]; [29]", "result": 80}, {"measurement": "Wheat plant response rating (0 to 100 scale)", "setting": "[7]; [30]", "result": 90}, {"measurement": "Oat, Wild plant response rating (0-100)", "setting": "[8]; [29]", "result": 80}, {"measurement": "Oat, Wild plant response rating (0 to 100 scale)", "setting": "[8]; [30]", "result": 90}, {"measurement": "Foxtail, Green plant response rating (0-100)", "setting": "[9]; [29]", "result": 0}, {"measurement": "Foxtail, Green plant response rating (0 to 100 scale)", "setting": "[9]; [30]", "result": 40}, {"measurement": "Kochia plant response rating (0-100)", "setting": "[10]; [29]", "result": 40}, {"measurement": "Kochia plant response rating (0 to 100 scale)", "setting": "[10]; [30]", "result": 50}, {"measurement": "Ragweed plant response rating (0-100)", "setting": "[11]; [29]", "result": 30}, {"measurement": "Ragweed plant response rating (0 to 100 scale)", "setting": "[11]; [30]", "result": 50}, {"measurement": "Amaranth, Palmer plant response rating (0-100)", "setting": "[12]; [29]", "result": 0}, {"measurement": "Amaranth, Palmer / Pigweed, Palmer plant response rating (0 to 100 scale)", "setting": "[12]; [30]", "result": 30}, {"measurement": "Ryegrass, Italian plant response rating (0-100)", "setting": "[13]; [29]", "result": 20}, {"measurement": "Ryegrass, Italian plant response rating (0 to 100 scale)", "setting": "[13]; [30]", "result": 80}, {"measurement": "Plant response rating, Ducksalad (0 to 100 scale, 0 is no effect and 100 is complete control)", "setting": "[14]", "result": 0}, {"measurement": "Plant response rating, Rice (0 to 100 scale, 0 is no effect and 100 is complete control)", "setting": "[15]", "result": 0}, {"measurement": "Plant response rating, Sedge, Umbrella (0 to 100 scale, 0 is no effect and 100 is complete control)", "setting": "[16]", "result": 0}, {"measurement": "Plant response rating, Barnyardgrass (0 to 100 scale, 0 is no effect and 100 is complete control)", "setting": "[17]", "result": 0}, {"measurement": "Corn plant response rating (0-100)", "setting": "[18]; 31 g ai/ha", "result": 0}, {"measurement": "Corn plant response rating (0 to 100 scale)", "setting": "[18]; 125 g ai/ha", "result": 10}, {"measurement": "Blackgrass plant response rating (0-100)", "setting": "[19]; 31 g ai/ha", "result": 0}, {"measurement": "Blackgrass plant response rating (0 to 100 scale)", "setting": "[19]; 125 g ai/ha", "result": 0}, {"measurement": "Barnyardgrass plant response rating (0-100)", "setting": "[20]; 31 g ai/ha", "result": 0}, {"measurement": "Barnyardgrass plant response rating (0 to 100 scale)", "setting": "[20]; 125 g ai/ha", "result": 0}, {"measurement": "Soybean plant response rating (0-100)", "setting": "[21]; 31 g ai/ha", "result": 20}, {"measurement": "Soybean plant response rating (0 to 100 scale)", "setting": "[21]; 125 g ai/ha", "result": 0}, {"measurement": "Wheat plant response rating (0-100)", "setting": "[22]; 31 g ai/ha", "result": 0}, {"measurement": "Wheat plant response rating (0 to 100 scale)", "setting": "[22]; 125 g ai/ha", "result": 70}, {"measurement": "Oat, Wild plant response rating (0-100)", "setting": "[23]; 31 g ai/ha", "result": 0}, {"measurement": "Oat, Wild plant response rating (0 to 100 scale)", "setting": "[23]; 125 g ai/ha", "result": 40}, {"measurement": "Foxtail, Green plant response rating (0-100)", "setting": "[24]; 31 g ai/ha", "result": 0}, {"measurement": "Foxtail, Green plant response rating (0 to 100 scale)", "setting": "[24]; 125 g ai/ha", "result": 0}, {"measurement": "Kochia plant response rating (0-100)", "setting": "[25]; 31 g ai/ha", "result": 0}, {"measurement": "Kochia plant response rating (0 to 100 scale)", "setting": "[25]; 125 g ai/ha", "result": 20}, {"measurement": "Ragweed plant response rating (0-100)", "setting": "[26]; 31 g ai/ha", "result": 0}, {"measurement": "Ragweed plant response rating (0 to 100 scale)", "setting": "[26]; 125 g ai/ha", "result": 0}, {"measurement": "Amaranth, Palmer plant response rating (0-100)", "setting": "[27]; 31 g ai/ha", "result": 0}, {"measurement": "Amaranth, Palmer plant response rating (0 to 100 scale)", "setting": "[27]; 125 g ai/ha", "result": 0}, {"measurement": "Ryegrass, Italian plant response rating (0-100)", "setting": "[28]; 31 g ai/ha", "result": 0}, {"measurement": "Ryegrass, Italian plant response rating (0 to 100 scale)", "setting": "[28]; 125 g ai/ha", "result": 80}]}]}
